# Assay results from patent US20250051319A1 (AUGUSTINE THERAPEUTICS, priority 2021, published 2025).
# Target: human full-length recombinant HDAC6 (Homo sapiens (Human), UniProt Q9UBN7)
# Assay: HDAC6 enzymatic activity assay (alternative protocol, Ac-Gly-Ala-Lys(Ac)-AMC)
# Type: biochemical
# Details: 5 nM enzyme, read-out: HDAC6 biochem
# Protocol: (§1) Inhibition of HDAC enzymes was performed in 384-well plate format using human full-length recombinant HDAC1 and HDAC6, isolated from a baculovirus expression system in Sf9 cells (BPS Bioscience). Reaction buffer for HDAC1 contained 50 mM Tris HCl pH 8.0, 137 mM NaCl, 2.7 mM KCl, 1 mM MgCl2, 0.1 mg/mL BSA, and reaction buffer for HDAC6 contained 50 mM Tris/HCl, pH 8.0, 137 mM NaCl, 2.7 mM KCl, 250 μM EDTA, 1 mM DTT, 0.1 mg/mL BSA. Compounds (dissolved in 100% DMSO) or DMSO (vehicle) were diluted in assay buffer at 3× final assay concentration and then added to assay plates. SAHA ([…]) was used as a positive control. 3× final assay concentration of recombinant enzymes (final assay concentration is 4 nM and 5 nM for HDAC1 and HDAC6, respectively) were preincubated for 10 minutes with test compounds at room temperature. Afterwards, 3× final assay concentration of an acetylated fluorogenic peptide (Ac-Gly-Ala-Lys(Ac))-AMC, Bachem; final assay concentration is 12 µM and 40 µM for HDAC1 and HDAC6, respectively) was added to assay plate, allowing deacetylase reactions to incubate for 60 minutes at room temperature. The developer reagent containing 5 μM SAHA and 50 μM trypsin was added to stop the deacetylase reaction and generate AMNC-fluorescence. 15 minutes after addition of developer reagent, endpoint measurements were taken using CLARIOstar (BMG Labtech) plate reader (excitation/emission: 360/450). Fluorescence signals were normalized for each plate using GraphPad Prism software: reaction HDAC-substrate in presence of DMSO was set to 100% while reaction HDAC-substrate in presence of 10 μM SAHA was set to 0%.
# Sequence of human full-length recombinant HDAC6 (Q9UBN7 whole entry): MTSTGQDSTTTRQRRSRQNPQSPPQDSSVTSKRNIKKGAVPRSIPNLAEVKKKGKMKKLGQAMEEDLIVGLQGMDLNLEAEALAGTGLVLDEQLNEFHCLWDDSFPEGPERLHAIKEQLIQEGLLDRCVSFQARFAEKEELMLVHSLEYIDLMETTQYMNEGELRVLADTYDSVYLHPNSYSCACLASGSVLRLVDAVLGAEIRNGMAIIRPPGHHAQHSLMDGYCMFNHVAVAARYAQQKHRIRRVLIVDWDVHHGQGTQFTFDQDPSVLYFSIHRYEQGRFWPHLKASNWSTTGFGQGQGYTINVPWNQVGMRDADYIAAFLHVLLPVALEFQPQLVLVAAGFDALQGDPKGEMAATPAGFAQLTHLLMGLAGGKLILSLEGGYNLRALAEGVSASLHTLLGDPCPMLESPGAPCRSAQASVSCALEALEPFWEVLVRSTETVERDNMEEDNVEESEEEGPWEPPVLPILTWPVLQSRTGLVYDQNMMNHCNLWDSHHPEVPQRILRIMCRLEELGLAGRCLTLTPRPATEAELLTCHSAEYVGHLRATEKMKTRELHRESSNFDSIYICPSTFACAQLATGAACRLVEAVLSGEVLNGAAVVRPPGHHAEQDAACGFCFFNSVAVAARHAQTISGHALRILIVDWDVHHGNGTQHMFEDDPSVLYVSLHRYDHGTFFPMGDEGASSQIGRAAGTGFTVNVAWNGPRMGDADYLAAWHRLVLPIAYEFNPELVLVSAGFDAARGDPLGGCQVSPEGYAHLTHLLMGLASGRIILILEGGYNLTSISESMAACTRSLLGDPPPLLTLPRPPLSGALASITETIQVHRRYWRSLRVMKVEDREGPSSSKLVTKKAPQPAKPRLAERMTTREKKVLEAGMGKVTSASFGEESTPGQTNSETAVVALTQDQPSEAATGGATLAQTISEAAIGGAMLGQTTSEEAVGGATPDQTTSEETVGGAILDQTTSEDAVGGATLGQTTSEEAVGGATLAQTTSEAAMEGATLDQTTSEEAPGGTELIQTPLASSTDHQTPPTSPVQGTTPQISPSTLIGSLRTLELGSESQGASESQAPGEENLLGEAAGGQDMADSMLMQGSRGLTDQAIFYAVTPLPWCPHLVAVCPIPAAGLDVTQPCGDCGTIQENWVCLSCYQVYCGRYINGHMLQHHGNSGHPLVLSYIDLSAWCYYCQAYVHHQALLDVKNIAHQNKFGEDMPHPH
row,IC50,Compound
1,≤ 100 nM,"Cn1ncc2c(SCC(=O)c3ccc(CNC(=O)Cc4ccccc4)s3)ncnc21 [Example 32, N-((5-(2-((1-methyl-1H-pyrazolo[3,4-d]pyrimidin-4-yl)thio)acetyl)thiophen-2-yl)methyl)-2-phenylacetamide]"
2,1000 to 10000 nM,"CC(C)(C)C(=O)NCc1ccc(C(=O)CSc2nc(C(F)(F)F)cc3ccccc23)s1 [Example 191, N-((5-(2-((3-(trifluoromethyl)isoquinolin-1-yl)thio)acetyl)thiophen-2-yl)methyl)pivalamide]"
3,100 to 500 nM,"Cn1ncc2c(SCC(=O)c3nnc(CNC(=O)C(C)(C)C)s3)ncnc21 [Example 192, N-((5-(2-(1-methyl-1H-pyrazolo[3,4-d]pyrimidin-4-ylthio)acetyl)-1,3,4-thiadiazol-2-yl)methyl)pivalamide]"
4,≤ 100 nM,CC(C)(C)C(=O)NCc1ccc(C(=O)CSc2nnc(C(F)(F)F)c3ccccc23)s1 [Example 195]

# Target: catalytic domain 2 (CD2) of HDAC6 (Homo sapiens (Human), UniProt Q9UBN7)
# Assay: Cellular target engagement assay - NanoBRET
# Type: cell-based
# Details: NanoLuc-HDAC6(CD2) in HEK293T cells, 2 hours, read-out: IC50 (HDAC6(CD2) interaction)
# Sequence of catalytic domain 2 (CD2) of HDAC6 (Q9UBN7 482-800): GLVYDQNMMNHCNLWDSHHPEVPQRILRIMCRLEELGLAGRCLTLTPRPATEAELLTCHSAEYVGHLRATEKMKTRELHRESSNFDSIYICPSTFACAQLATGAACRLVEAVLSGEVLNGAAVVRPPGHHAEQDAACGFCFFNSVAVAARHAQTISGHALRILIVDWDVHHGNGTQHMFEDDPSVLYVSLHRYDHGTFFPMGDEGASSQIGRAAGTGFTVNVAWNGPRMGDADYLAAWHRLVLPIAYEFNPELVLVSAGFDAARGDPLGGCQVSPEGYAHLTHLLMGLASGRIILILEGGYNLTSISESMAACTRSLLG
row,IC50,Compound
1,500 to 1000 nM,"COc1ccc2nc(C)nc(SCC(=O)c3ccc(CNC(=O)C4CC4(F)F)s3)c2c1 (stereo not shown) [Example 39, 2,2-difluoro-N-((5-(2-((6-methoxy-2-methylquinazolin-4-yl)thio)acetyl)thiophen-2-yl)methyl)cyclopropane-1-carboxamide]"
2,1000 to 10000 nM,"COc1ccc2nc(C)nc(SCC(=O)c3ccc(CNC(=O)C(F)(F)C(F)(F)F)s3)c2c1 [Example 40, 2,2,3,3,3-pentafluoro-N-((5-(2-((6-methoxy-2-methylquinazolin-4-yl)thio)acetyl)thiophen-2-yl)methyl)propanamide]"
3,≤ 100 nM,"Cn1cc2c(SCC(=O)c3ccc(CNC(=O)C4CC4)s3)nc(C(F)(F)F)nc2n1 [Example 41, N-((5-(2-((2-methyl-6-(trifluoromethyl)-2H-pyrazolo[3,4-d]pyrimidin-4-yl)thio)acetyl)thiophen-2-yl)methyl)cyclopropanecarboxamide]"
4,100 to 500 nM,"COc1ccc2nc(C)nc(SCC(=O)c3ccc(CNC(=O)C4CC4)s3)c2c1 [Example 51, N-((5-(2-((6-methoxy-2-methylquinazolin-4-yl)thio)acetyl)thiophen-2-yl)methyl)cyclopropanecarboxamide]"
5,100 to 500 nM,O=C(CO)NCc1ccc(C(=O)CSc2nc(C(F)(F)F)nc3ccc(N4CCOCC4)cc23)s1 [Example 63]
6,100 to 500 nM,"CC(=O)NCCc1ccc(C(=O)CSc2nc(C3CC3)nc3ccccc23)s1 [Example 101, N-(2-(5-(2-((2-cyclopropylquinazolin-4-yl)thio)acetyl)thiophen-2-yl)ethyl)acetamide]"
7,500 to 1000 nM,"CC(=O)NCc1ccc(C(=O)CSc2ncnc3c2cnn3C)s1 [Example 103, N-((5-(2-((1-methyl-1H-pyrazolo[3,4-d]pyrimidin-4-yl)thio)acetyl)thiophen-2-yl)methyl)acetamide]"
8,500 to 1000 nM,"COc1ccc2nc(C)nc(SCC(=O)c3ccc(CCN4CCC(O)C4=O)s3)c2c1 (stereo not shown) [Example 115, 3-hydroxy-1-(2-(5-(2-((6-methoxy-2-methylquinazolin-4-yl)thio)acetyl)thiophen-2-yl)ethyl)pyrrolidin-2-one]"
9,100 to 500 nM,"COc1ccc2nc(C)nc(SCC(=O)c3ccc([C@H](C)NC(=O)CO)s3)c2c1 [Example 128, (S)-2-hydroxy-N-(1-(5-(2-((6-methoxy-2-methylquinazolin-4-yl)thio)acetyl)thiophen-2-yl)ethyl)acetamide]"
10,100 to 500 nM,"C[C@H](NC(=O)CO)c1ccc(C(=O)CSc2nc(C(F)(F)F)nc3c2cnn3C)s1 [Example 130, (S)-2-hydroxy-N-(1-(5-(2-((1-methyl-6-(trifluoromethyl)-1H-pyrazolo[3,4-d]pyrimidin-4-yl)thio)acetyl)thiophen-2-yl)ethyl)acetamide]"
11,100 to 500 nM,"COc1ccc2nc(C)nc(SCC(=O)c3ccc(CN4CCOCC4=O)s3)c2c1 [Example 137, 4-((5-(2-((6-methoxy-2-methylquinazolin-4-yl)thio)acetyl)thiophen-2-yl)methyl)morpholin-3-one]"
12,100 to 500 nM,"COc1ccc2nc(C)nc(SCC(=O)c3ccc(CN4CCC(O)C4=O)s3)c2c1 (stereo not shown) [Example 141, 3-hydroxy-1-((5-(2-((6-methoxy-2-methylquinazolin-4-yl)thio)acetyl)thiophen-2-yl)methyl)pyrrolidin-2-one]"
13,≤ 100 nM,"O=C(CSc1nc(C(F)(F)F)nc2ncccc12)c1ccc(CN2CCCC2=O)s1 [Example 157, 1-((5-(2-((2-(trifluoromethyl)pyrido[2,3-d]pyrimidin-4-yl)thio)acetyl)thiophen-2-yl)methyl)pyrrolidin-2-one]"
14,100 to 500 nM,"COc1cnc2nc(C)nc(SCC(=O)c3ccc(CN4CCOCC4=O)s3)c2c1 [Example 161, 4-((5-(2-((6-methoxy-2-methylpyrido[2,3-d]pyrimidin-4-yl)thio)acetyl)thiophen-2-yl)methyl)morpholin-3-one]"
15,100 to 500 nM,"O=C(CO)NCc1ccc(C(=O)CSc2nccc3cccnc23)s1 [Example 165, N-((5-(2-((1,7-naphthyridin-8-yl)thio)acetyl)thiophen-2-yl)methyl)-2-hydroxyacetamide]"
16,1000 to 10000 nM,"O=C(CO)NCc1ccc(C(=O)CSc2nc3cc(Cl)cnc3[nH]2)s1 [Example 166, N-((5-(2-((6-chloro-3H-imidazo[4,5-b]pyridin-2-yl)thio)acetyl)thiophen-2-yl)methyl)-2-hydroxyacetamide]"
17,1000 to 10000 nM,"COc1ccc2oc(SCC(=O)c3ccc(CNC(=O)CO)s3)nc2c1 [Example 167, 2-hydroxy-N-((5-(2-((5-methoxybenzo[d]oxazol-2-yl)thio)acetyl)thiophen-2-yl)methyl)acetamide]"
18,1000 to 10000 nM,"COc1cccc2oc(SCC(=O)c3ccc(CNC(=O)CO)s3)nc12 [Example 168, 2-hydroxy-N-((5-(2-((4-methoxybenzo[d]oxazol-2-yl)thio)acetyl)thiophen-2-yl)methyl)acetamide]"
19,1000 to 10000 nM,"Cn1c(SCC(=O)c2ccc(CNC(=O)CO)s2)nc2ccccc21 [Example 169, 2-hydroxy-N-((5-(2-((1-methyl-1H-benzo[d]imidazol-2-yl)thio)acetyl)thiophen-2-yl)methyl)acetamide]"
20,1000 to 10000 nM,"Cc1ccc2oc(SCC(=O)c3ccc(CNC(=O)CO)s3)nc2c1 [Example 170, 2-hydroxy-N-((5-(2-((5-methylbenzo[d]oxazol-2-yl)thio)acetyl)thiophen-2-yl)methyl)acetamide]"
21,1000 to 10000 nM,"COc1ccc2nc(SCC(=O)c3ccc(CNC(=O)CO)s3)[nH]c2n1 [Example 173, 2-hydroxy-N-((5-(2-((5-methoxy-3H-imidazo[4,5-b]pyridin-2-yl)thio)acetyl)thiophen-2-yl)methyl)acetamide]"
22,1000 to 10000 nM,"O=C(CO)NCc1ccc(C(=O)CSc2nc3cc(Cl)ccc3o2)s1 [Example 174, N-((5-(2-((5-chlorobenzo[d]oxazol-2-yl)thio)acetyl)thiophen-2-yl)methyl)-2-hydroxyacetamide]"
23,1000 to 10000 nM,"O=C(CO)NCc1ccc(C(=O)CSc2nccn3ccnc23)s1 [Example 176, 2-hydroxy-N-((5-(2-(imidazo[1,2-a]pyrazin-8-ylthio)acetyl)thiophen-2-yl)methyl)acetamide]"
24,100 to 500 nM,"O=C(CO)NCc1ccc(C(=O)CSc2nccc3ncccc23)s1 [Example 179, N-((5-(2-((1,6-naphthyridin-5-yl)thio)acetyl)thiophen-2-yl)methyl)-2-hydroxyacetamide]"
25,100 to 500 nM,"O=C(CO)NCc1ccc(C(=O)CSc2nccc3ccncc23)s1 [Example 180, N-((5-(2-((2,7-naphthyridin-1-yl)thio)acetyl)thiophen-2-yl)methyl)-2-hydroxyacetamide]"
26,100 to 500 nM,"O=C(CO)NCc1ccc(C(=O)CSc2nccn3cncc23)s1 [Example 181, 2-hydroxy-N-((5-(2-(imidazo[1,5-a]pyrazin-8-ylthio)acetyl)thiophen-2-yl)methyl)acetamide]"
27,1000 to 10000 nM,"O=C(CO)NCc1ccc(C(=O)CSc2nccn3nccc23)s1 [Example 182, 2-hydroxy-N-((5-(2-(pyrazolo[1,5-a]pyrazin-4-ylthio)acetyl)thiophen-2-yl)methyl)acetamide]"
28,100 to 500 nM,"COc1ccc2nc(C)nc(SCC(=O)c3ccc(CNC(=O)N(C)C)s3)c2c1 [Example 189, 3-((5-(2-((6-methoxy-2-methylquinazolin-4-yl)thio)acetyl)thiophen-1-yl)methyl)-1,1-dimethylurea]"
29,100 to 500 nM,"COc1cnc2nc(C)nc(SCC(=O)c3ccc(CNC(=O)OC(C)(C)C)s3)c2c1 [Example 190, tert-butyl ((5-(2-((6-methoxy-2-methylpyrido[2,3-d]pyrimidin-4-yl)thio)acetyl)thiophen-2-yl)methyl)carbamate]"

# Target: human full-length recombinant HDAC1 (Homo sapiens (Human), UniProt Q13547)
# Assay: HDAC1 enzymatic activity assay (alternative protocol, Ac-Gly-Ala-Lys(Ac)-AMC)
# Type: biochemical
# Details: 4 nM enzyme, read-out: HDAC1 biochem
# Protocol: as §1
# Sequence of human full-length recombinant HDAC1 (Q13547 whole entry): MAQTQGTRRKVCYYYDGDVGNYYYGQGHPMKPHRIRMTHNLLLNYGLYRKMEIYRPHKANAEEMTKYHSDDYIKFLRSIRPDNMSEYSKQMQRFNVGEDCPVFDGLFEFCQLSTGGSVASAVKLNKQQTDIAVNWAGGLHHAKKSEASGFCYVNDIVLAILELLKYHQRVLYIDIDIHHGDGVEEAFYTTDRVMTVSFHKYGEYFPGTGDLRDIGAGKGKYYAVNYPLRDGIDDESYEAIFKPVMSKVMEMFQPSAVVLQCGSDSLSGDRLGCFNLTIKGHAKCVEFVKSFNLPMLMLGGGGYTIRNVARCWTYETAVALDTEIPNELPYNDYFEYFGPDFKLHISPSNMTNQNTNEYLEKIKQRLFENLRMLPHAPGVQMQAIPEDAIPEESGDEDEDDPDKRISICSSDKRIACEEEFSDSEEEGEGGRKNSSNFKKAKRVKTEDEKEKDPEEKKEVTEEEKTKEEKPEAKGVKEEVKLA
row,IC50,Compound
1,> 10000 nM,"Cn1ncc2c(SCC(=O)c3ccc(CNC(=O)Cc4ccccc4)s3)ncnc21 [Example 32, N-((5-(2-((1-methyl-1H-pyrazolo[3,4-d]pyrimidin-4-yl)thio)acetyl)thiophen-2-yl)methyl)-2-phenylacetamide]"
2,> 10000 nM,"CC(C)(C)C(=O)NCc1ccc(C(=O)CSc2nc(C(F)(F)F)cc3ccccc23)s1 [Example 191, N-((5-(2-((3-(trifluoromethyl)isoquinolin-1-yl)thio)acetyl)thiophen-2-yl)methyl)pivalamide]"
3,500 to 1000 nM,"Cn1ncc2c(SCC(=O)c3nnc(CNC(=O)C(C)(C)C)s3)ncnc21 [Example 192, N-((5-(2-(1-methyl-1H-pyrazolo[3,4-d]pyrimidin-4-ylthio)acetyl)-1,3,4-thiadiazol-2-yl)methyl)pivalamide]"
4,> 10000 nM,CC(C)(C)C(=O)NCc1ccc(C(=O)CSc2nnc(C(F)(F)F)c3ccccc23)s1 [Example 195]
